Assay results: US12286437B2, “Cardiac sarcomere inhibitors” (Cytokinetics, Inc., priority 2021, dated 2025)
Where two headings read alike, the source gives them in different places.

Legend:
Assay type in all cases: in vitro ADME
CYP1A2 = target: T1, CYP1A2 (Homo sapiens, UniProt P05177); assay: Time-dependent inhibition of CYP1A2 in human liver microsomes; conditions: for (% Activity NADPH T0)/(% Activity NADPH T30): fold change; for activity at 30 min, 25 µM / activity at 0 min, 25 µM / activity at 30 min, 50 µM / activity at 0 min, 50 µM: pooled human liver microsomes, human liver microsomes; for activity at 30 min, 25 µM / activity at 30 min, 50 µM: after 30 minutes incubation, read-out: % Activity NADPH T30; for activity at 0 min, 25 µM / activity at 0 min, 50 µM: time zero, read-out: % Activity NADPH T0
T1 construct: Pooled human microsomes and selective CYP probe substrates were used; from tissue; host or cells: pooled human liver microsomes
T1 sequence (P05177 1-516): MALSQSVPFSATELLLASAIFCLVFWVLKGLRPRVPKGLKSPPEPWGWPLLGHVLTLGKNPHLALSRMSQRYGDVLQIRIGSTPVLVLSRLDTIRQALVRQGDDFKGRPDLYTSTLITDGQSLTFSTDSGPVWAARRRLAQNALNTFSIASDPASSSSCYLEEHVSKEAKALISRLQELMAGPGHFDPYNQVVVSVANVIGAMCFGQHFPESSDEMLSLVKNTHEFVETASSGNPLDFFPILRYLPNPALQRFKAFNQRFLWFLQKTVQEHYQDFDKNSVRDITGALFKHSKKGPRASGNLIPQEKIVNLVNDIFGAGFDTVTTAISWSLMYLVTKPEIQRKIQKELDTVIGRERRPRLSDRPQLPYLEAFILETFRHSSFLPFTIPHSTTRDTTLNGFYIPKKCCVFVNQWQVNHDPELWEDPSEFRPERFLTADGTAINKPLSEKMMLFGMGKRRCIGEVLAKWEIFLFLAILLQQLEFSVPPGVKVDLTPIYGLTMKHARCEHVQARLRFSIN
Method: (§1) An assessment of the time-dependent Inhibitory Potential of the test compounds against Principal Human Cytochrome P450 Isozymes using Human Liver Microsomes was also carried out using standard methods (Grimm et al, Drug Metab. Dispos., July; 37(7):1355-70. doi: 10.1124/dmd.109.026716, 2009). Pooled human microsomes and selective CYP probe substrates were used for in vitro assessment of test compounds at 25 and 50 μM as time-dependent inhibitors of […] human hepatic cytochrome P450 isozymes (CYP1A2, 2B6, 2C9, 2C19, 2D6, and 3A4). LC-MS/MS was used to quantify metabolite formation. The inhibition of each P450 enzyme in human liver microsomes was measured as the percentage decrease in the activity of marker metabolite formation as measured by LC-MS/MS compared to non-inhibited controls (=100% activity) at time zero and after 30 minutes incubation. The occurrence of any time dependent inhibition was then expressed as the fold change in enzyme activity at time zero relative to the activity after 30 minutes incubation.

CYP2B6 = target: T2, CYP2B6 (Homo sapiens, UniProt P20813); assay: Time-dependent inhibition of CYP2B6 in human liver microsomes; conditions: for (% Activity NADPH T0)/(% Activity NADPH T30): fold change; for activity at 30 min, 25 µM / activity at 0 min, 25 µM / activity at 30 min, 50 µM / activity at 0 min, 50 µM: pooled human liver microsomes, human liver microsomes; for activity at 30 min, 25 µM / activity at 30 min, 50 µM: after 30 minutes incubation, read-out: % Activity NADPH T30; for activity at 0 min, 25 µM / activity at 0 min, 50 µM: time zero, read-out: % Activity NADPH T0
T2 construct: Pooled human microsomes and selective CYP probe substrates were used; from tissue; host or cells: pooled human liver microsomes
T2 sequence (P20813 1-491): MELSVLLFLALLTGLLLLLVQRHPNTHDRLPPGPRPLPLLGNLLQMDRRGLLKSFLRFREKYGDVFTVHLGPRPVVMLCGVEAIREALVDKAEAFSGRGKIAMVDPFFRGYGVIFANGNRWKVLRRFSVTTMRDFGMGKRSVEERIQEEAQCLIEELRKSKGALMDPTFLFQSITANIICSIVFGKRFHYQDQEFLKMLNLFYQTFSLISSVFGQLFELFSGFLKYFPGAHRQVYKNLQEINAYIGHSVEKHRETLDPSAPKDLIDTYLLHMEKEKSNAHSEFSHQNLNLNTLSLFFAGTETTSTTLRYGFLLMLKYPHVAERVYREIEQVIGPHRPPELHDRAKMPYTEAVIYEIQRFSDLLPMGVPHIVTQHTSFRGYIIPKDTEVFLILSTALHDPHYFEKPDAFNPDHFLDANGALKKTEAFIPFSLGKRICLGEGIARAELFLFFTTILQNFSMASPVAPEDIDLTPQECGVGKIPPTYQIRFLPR
Method: as §1

CYP2C19 = target: T3, CYP2C19 (Homo sapiens, UniProt P33261); assay: Time-dependent inhibition of CYP2C19 in human liver microsomes; conditions: for (% Activity NADPH T0)/(% Activity NADPH T30): fold change; for activity at 30 min, 25 µM / activity at 0 min, 25 µM / activity at 30 min, 50 µM / activity at 0 min, 50 µM: pooled human liver microsomes, human liver microsomes; for activity at 30 min, 25 µM / activity at 30 min, 50 µM: after 30 minutes incubation, read-out: % Activity NADPH T30; for activity at 0 min, 25 µM / activity at 0 min, 50 µM: time zero, read-out: % Activity NADPH T0
T3 construct: Pooled human microsomes and selective CYP probe substrates were used; from tissue; host or cells: pooled human liver microsomes
Method: as §1

CYP2C8 = target: T4, CYP2C8 (Homo sapiens, UniProt P10632); assay: Time-dependent inhibition of CYP2C8 in human liver microsomes; conditions: for (% Activity NADPH T0)/(% Activity NADPH T30): fold change; for activity at 30 min, 25 µM / activity at 0 min, 25 µM / activity at 30 min, 50 µM / activity at 0 min, 50 µM: pooled human liver microsomes, human liver microsomes; for activity at 30 min, 25 µM / activity at 30 min, 50 µM: after 30 minutes incubation, read-out: % Activity NADPH T30; for activity at 0 min, 25 µM / activity at 0 min, 50 µM: time zero, read-out: % Activity NADPH T0
T4 construct: Pooled human microsomes and selective CYP probe substrates were used; from tissue; host or cells: pooled human liver microsomes
T4 sequence (P10632 1-490): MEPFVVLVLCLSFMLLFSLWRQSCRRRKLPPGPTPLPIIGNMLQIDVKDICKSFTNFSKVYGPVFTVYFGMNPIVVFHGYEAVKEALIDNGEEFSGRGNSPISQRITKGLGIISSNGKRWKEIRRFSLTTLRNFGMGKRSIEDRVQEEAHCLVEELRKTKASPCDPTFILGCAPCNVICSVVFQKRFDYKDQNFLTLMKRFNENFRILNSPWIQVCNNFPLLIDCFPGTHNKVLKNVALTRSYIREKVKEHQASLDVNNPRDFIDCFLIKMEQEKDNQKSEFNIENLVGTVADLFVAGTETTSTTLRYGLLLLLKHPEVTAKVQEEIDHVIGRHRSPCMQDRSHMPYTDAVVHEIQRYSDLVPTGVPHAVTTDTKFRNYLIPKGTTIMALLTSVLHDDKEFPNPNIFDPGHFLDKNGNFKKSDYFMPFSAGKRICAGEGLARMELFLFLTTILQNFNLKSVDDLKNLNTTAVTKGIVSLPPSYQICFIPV
Method: as §1

CYP3A4 = target: T5, CYP3A4 (Homo sapiens, UniProt P08684); assay: Time-dependent inhibition of CYP3A4 in human liver microsomes (testosterone and midazolam probes); conditions: for (% Activity NADPH T0)/(% Activity NADPH T30): fold change; for activity at 30 min, 25 µM / activity at 30 min, 50 µM: human, after 30 minutes incubation, read-out: % Activity NADPH T30; for activity at 30 min, 25 µM / activity at 30 min, 50 µM / activity at 0 min, 25 µM / activity at 0 min, 50 µM: pooled human liver microsomes; for activity at 0 min, 25 µM / activity at 0 min, 50 µM: human liver microsomes, time zero, read-out: % Activity NADPH T0
T5 construct: Pooled human microsomes and selective CYP probe substrates were used; from tissue; host or cells: pooled human liver microsomes
Method: as §1

[1] = CYP3A4-M (midazolam probe substrate), 25 μM
[2] = CYP3A4-M (midazolam probe substrate), 50 μM
[3] = CYP3A4-T (testosterone probe substrate), 25 μM
[4] = CYP3A4-T (testosterone probe substrate), 50 μM

T3 sequence (P33261 whole entry): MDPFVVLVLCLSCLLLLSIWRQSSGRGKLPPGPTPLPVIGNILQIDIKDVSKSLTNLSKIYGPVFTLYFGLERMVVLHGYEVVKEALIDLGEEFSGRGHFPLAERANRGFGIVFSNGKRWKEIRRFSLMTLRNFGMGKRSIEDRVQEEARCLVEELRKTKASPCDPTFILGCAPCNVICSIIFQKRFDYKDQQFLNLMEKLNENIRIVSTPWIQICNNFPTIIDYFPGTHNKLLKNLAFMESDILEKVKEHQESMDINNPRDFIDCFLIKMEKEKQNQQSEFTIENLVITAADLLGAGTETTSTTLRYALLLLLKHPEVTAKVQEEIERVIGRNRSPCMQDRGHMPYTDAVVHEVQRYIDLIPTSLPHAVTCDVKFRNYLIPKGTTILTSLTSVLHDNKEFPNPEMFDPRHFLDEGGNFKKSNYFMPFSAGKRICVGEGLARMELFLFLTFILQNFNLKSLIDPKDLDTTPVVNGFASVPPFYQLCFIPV
T5 sequence (P08684 whole entry): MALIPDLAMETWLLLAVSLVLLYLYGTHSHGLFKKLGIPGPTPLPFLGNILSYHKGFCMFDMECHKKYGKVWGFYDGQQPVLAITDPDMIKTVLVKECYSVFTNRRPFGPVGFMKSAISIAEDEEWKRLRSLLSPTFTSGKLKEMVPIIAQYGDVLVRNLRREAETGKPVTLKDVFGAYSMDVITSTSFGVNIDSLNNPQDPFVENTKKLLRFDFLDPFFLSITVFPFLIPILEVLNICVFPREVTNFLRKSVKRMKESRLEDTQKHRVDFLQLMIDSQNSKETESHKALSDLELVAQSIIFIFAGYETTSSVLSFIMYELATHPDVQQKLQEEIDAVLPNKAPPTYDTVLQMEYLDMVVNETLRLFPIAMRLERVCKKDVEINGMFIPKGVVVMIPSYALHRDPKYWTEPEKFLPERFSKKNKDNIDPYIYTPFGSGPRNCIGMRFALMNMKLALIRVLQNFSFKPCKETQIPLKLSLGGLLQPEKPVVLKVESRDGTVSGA

(% Activity NADPH T0)/(% Activity NADPH T30) (CYP1A2; CYP1A2, 25 μM) | (% Activity NADPH T0)/(% Activity NADPH T30) (CYP1A2; CYP1A2, 50 μM) | activity at 30 min, 25 µM (CYP1A2; CYP1A2, 25 μM) | activity at 0 min, 25 µM (CYP1A2; CYP1A2, 25 μM) | activity at 30 min, 50 µM (CYP1A2; CYP1A2, 50 μM) | activity at 0 min, 50 µM (CYP1A2; CYP1A2, 50 μM) | (% Activity NADPH T0)/(% Activity NADPH T30) (CYP2B6; CYP2B6, 25 μM) | (% Activity NADPH T0)/(% Activity NADPH T30) (CYP2B6; CYP2B6, 50 μM) | activity at 30 min, 25 µM (CYP2B6; CYP2B6, 25 μM) | activity at 0 min, 25 µM (CYP2B6; CYP2B6, 25 μM) | activity at 30 min, 50 µM (CYP2B6; CYP2B6, 50 μM) | activity at 0 min, 50 µM (CYP2B6; CYP2B6, 50 μM) | (% Activity NADPH T0)/(% Activity NADPH T30) (CYP2C19; CYP2C19, 25 μM) | (% Activity NADPH T0)/(% Activity NADPH T30) (CYP2C19; CYP2C19, 50 μM) | activity at 30 min, 25 µM (CYP2C19; CYP2C19, 25 μM) | activity at 0 min, 25 µM (CYP2C19; CYP2C19, 25 μM) | activity at 30 min, 50 µM (CYP2C19; CYP2C19, 50 μM) | activity at 0 min, 50 µM (CYP2C19; CYP2C19, 50 μM) | (% Activity NADPH T0)/(% Activity NADPH T30) (CYP2C8; CYP2C8, 25 μM) | (% Activity NADPH T0)/(% Activity NADPH T30) (CYP2C8; CYP2C8, 50 μM) | Compound | further results
1.0 | 1.1 | 87% | 89% | 88% | 99% | 1.0 | 1.1 | 78% | 79% | 76% | 83% | 1.2 | 1.3 | 83% | 101% | 77% | 102% | 1.0 | 2.0 | C[C@H]1CC[C@H](N2CC(=O)N(Cc3ccc(F)c(F)c3)C3(CN(C(N)=O)C3)C2=O)CC1 [Compound 5, 5-(3,4-difluorobenzyl)-8-((1r,4r)-4-methylcyclohexyl)-6,9-dioxo-2,5,8-triazaspiro[3.5]nonane-2-carboxamide] | activity at 30 min, 25 µM (CYP2C8; CYP2C8, 25 μM): 88%; activity at 0 min, 25 µM (CYP2C8; CYP2C8, 25 μM): 87%; activity at 30 min, 50 µM (CYP2C8; CYP2C8, 50 μM): 53%; activity at 0 min, 50 µM (CYP2C8; CYP2C8, 50 μM): 104%; (% Activity NADPH T0)/(% Activity NADPH T30) (CYP3A4; [1]): 1.1; (% Activity NADPH T0)/(% Activity NADPH T30) (CYP3A4; [2]): 1.9; (% Activity NADPH T0)/(% Activity NADPH T30) (CYP3A4; [3]): 1.1; (% Activity NADPH T0)/(% Activity NADPH T30) (CYP3A4; [4]): 1.4; activity at 30 min, 25 µM (CYP3A4; [1]): 69%; activity at 30 min, 50 µM (CYP3A4; [2]): 35%; activity at 30 min, 25 µM (CYP3A4; [3]): 87%; activity at 30 min, 50 µM (CYP3A4; [4]): 68%; activity at 0 min, 25 µM (CYP3A4; [1]): 75%; activity at 0 min, 50 µM (CYP3A4; [2]): 67%; activity at 0 min, 25 µM (CYP3A4; [3]): 100%; activity at 0 min, 50 µM (CYP3A4; [4]): 98%
1.1 | 1.0 | 85% | 97% | 99% | 95% | 1.1 | 1.1 | 83% | 95% | 77% | 87% | 1.2 | 1.1 | 89% | 105% | 92% | 100% | 0.9 | 1.1 | Cc1cc(CN2C(=O)CN([C@H]3CC[C@H](C)CC3)C(=O)C23CN(C(N)=O)C3)ccc1F [Compound 6, 5-(4-fluoro-3-methylbenzyl)-8-((1r,4r)-4-methylcyclohexyl)-6,9-dioxo-2,5,8-triazaspiro[3.5]nonane-2-carboxamide] | activity at 30 min, 25 µM (CYP2C8; CYP2C8, 25 μM): 88%; activity at 0 min, 25 µM (CYP2C8; CYP2C8, 25 μM): 79%; activity at 30 min, 50 µM (CYP2C8; CYP2C8, 50 μM): 80%; activity at 0 min, 50 µM (CYP2C8; CYP2C8, 50 μM): 86%; (% Activity NADPH T0)/(% Activity NADPH T30) (CYP3A4; [1]): 1.0; (% Activity NADPH T0)/(% Activity NADPH T30) (CYP3A4; [2]): 0.8; (% Activity NADPH T0)/(% Activity NADPH T30) (CYP3A4; [3]): 1.3; (% Activity NADPH T0)/(% Activity NADPH T30) (CYP3A4; [4]): 1.4; activity at 30 min, 25 µM (CYP3A4; [1]): 89%; activity at 30 min, 50 µM (CYP3A4; [2]): 86%; activity at 30 min, 25 µM (CYP3A4; [3]): 76%; activity at 30 min, 50 µM (CYP3A4; [4]): 63%; activity at 0 min, 25 µM (CYP3A4; [1]): 89%; activity at 0 min, 50 µM (CYP3A4; [2]): 72%; activity at 0 min, 25 µM (CYP3A4; [3]): 95%; activity at 0 min, 50 µM (CYP3A4; [4]): 89%
